In brackets after ≈: the same amount, converted by molar mass.
Columns and labels:
[1] = Accelerated stability test; assay type: physicochemical
Description: Appropriate amounts of the salt samples obtained from Examples 1 and 3-17 were placed at a temperature of 25±2° C. under 0%±5% RH in an open environment for 10 days and at a temperature of 40±2° C. under 75%±5% RH in an open environment for 10 days respectively to perform the accelerated tests, and the results were as follows: […]

[2] = Solubility test (UV spectrophotometer, saturated solutions shaken 24 hours); assay type: physicochemical; conditions: for Solubility, Water medium pH = 1.2 / Solubility, Water medium pH = 4.5 / Solubility, Water medium pH = 6.8 / Solubility, Water medium: 25° C.; for Solubility, Water medium pH = 1.2: pH=1.2 hydrochloric acid solution; for Solubility, Water medium pH = 4.5: pH=4.5 phosphate buffer solution; for Solubility, Water medium pH = 6.8: pH=6.8 phosphate buffer solution; for Solubility, Water medium: water (purified water)
Description: Detection instrument: Ultraviolet spectrophotometer/Evolution 300
The following solutions with pH=1.2, pH=4.5, and pH=6.8 and water were used as the solvent, and the solvent preparation process was as follows:
(1) pH=1.2 hydrochloric acid solution: To 7.65 mL of hydrochloric acid was added 1000 mL of water, and the mixture was shaken uniformly to obtain the target solution.
(2) pH=4.5 phosphate buffer solution: 6.8 g of potassium dihydrogen phosphate was taken and diluted with water to 1000 mL, and the mixture was shaken uniformly to obtain the target solution.
(2) pH=6.8 phosphate buffer solution: 6.8 g of potassium dihydrogen phosphate and 0.896 g of sodium hydroxide were taken and diluted with water to 1000 mL, and the mixture was shaken uniformly to obtain the target solution.
(4) Water: purified water
Test tubes with stopper were taken, and 10 mL of dissolution media at various pH values were precisely added to the test tubes respectively, and excessive stock drugs were added until supersaturated solutions were formed. The adding amounts were recorded. The solutions were shaken uniformly, sealed with stoppers, and shaken for 24 hours in a shaker. 2 mL of solutions were taken out at different time points respectively, and centrifuged. The resulting supernatants were taken, filtered, and the subsequent filtrates were taken for later use.
The above-mentioned saturated solutions in different solvents were taken, and solvents were added to dilute the solutions to certain volumes. The absorbances were measured at a wavelength of 287 nm.
Preparation of a solution of the reference substance: an appropriate amount of the compound represented by Formula 1 was taken as the reference substance, and precisely weighed. A solvent was added to dissolve and dilute the reference compound to produce a solution containing about 10 μg of the compound represented by Formula 1 per 1 mL. The absorbance was measured at a wavelength of 287 nm to calculate the solubility.
The salts obtained in Examples 1 and 3-17 and the compound represented by Formula 1 were subjected to the solubility test in media and the test results were shown in the following table: […]

Hygroscopicity test = assay type: physicochemical; conditions: 25±1° C., relative humidity 80%±2% (DVS, 80% RH)
Description: Detection instrument: XPE105DR
(1) A dry stoppered glass weighing bottle was taken, placed in a suitable constant-temperature desiccator at 25° C. 1° C. (with a saturated solution of ammonium chloride or ammonium sulfate in the lower part) or an artificial climate box (with the set temperature of 25° C.±1° C. and the relative humidity of 80%±2%) on the day before the test, and precisely weighed and recorded as the weight (m1).
(2) An appropriate amount of the test sample was taken and spread in the above-mentioned weighing bottle. The thickness of the test sample was generally about 1 mm, and the bottle was precisely weighed and recorded as the weight (m2).
(3) The stopper was removed to open the weighing bottle, and the opened weighing bottle and the stopper were placed under the above-mentioned constant temperature and humidity conditions for 24 hours.
(4) The opened weighing bottle was stoppered, precisely weighed, and recorded as the weight (m3).
Percentage increase in mass=(m3−m2)/(m2−m1)×100%
(5) The description of hygroscopicity characteristics and the definition for the weight gain due to hygroscopicity:
Deliquescence: Sufficient water was absorbed to form a liquid.
Very hygroscopic: the weight gain due to hygroscopicity was not less than 15%.
Hygroscopic: the weight gain due to hygroscopicity was less than 15% but not less than 2%.
Slightly hygroscopic: the weight gain due to hygroscopicity was less than 2% but not less than 0.2%.
Not or nearly not hygroscopic: the weight gain due to hygroscopicity was less than 0.2%.
Appropriate amounts of the salt samples obtained from Examples 1 and 3-17 were subjected to the hygroscopicity test at a temperature of 25±1° C. under a relative humidity of 80%±2%, and the results were as follows: […]

DSC and TGA tests = assay type: physicochemical; conditions: onset temperature
Description: 6. Differential Scanning Calorimetry-Thermogravimetric Analysis (DSC-TGA)
Detection instrument: NETZSCH STA 449F3
Temperature range: 20° C.-350° C.;
Heating rate: 10.0 (K/min);
7. Differential Scanning Calorimetry (DSC)
Detection instrument: NETZSCH DSC 214 Polyma
Temperature range: 20° C.-250° C.;
Heating rate: 5.0 (K/min);
8. Thermogravimetric Analysis (TGA)
Detection instrument: METTLER and SDT Q600
The salts obtained in Examples 1 and 3-17 and the compound represented by Formula 1 were subjected to the DSC and TGA tests in media, and the test results were shown in the following table: […]

[3] = system: MV4-11 (FLT3-ITD mutation) subcutaneous tumor model; conditions: human leukemia MV4-11 transplantation tumors in nude mice, background statement; cited from earlier work
[4] = system: lung cancer (PC-9) transplantation tumors; conditions: lung cancer PC-9 transplantation tumors in nude mice, background statement; cited from earlier work
[5] = system: human non-small cell lung cancer HCC827; conditions: lung cancer HCC827 transplantation tumors in nude mice, background statement; cited from earlier work
lung cancer = conditions: background statement; cited from earlier work
[6] = system: K562 (BCR-Abl gene rearrangement) subcutaneous tumor model; conditions: human leukemia K562 transplantation tumors in nude mice, background statement; cited from earlier work
leukemia = conditions: background statement; cited from earlier work
[7] = Placed at 25 ± 2° C. under 0% ± 5% RH in an open environment for 10 days
[8] = Placed at 40 ± 2° C. under 75% ± 5% RH in an open environment for 10 days

Row | SMILES | Appearance [1, 7] | Appearance [1, 8] | Solubility, Water medium pH = 1.2 [2] [mg/mL] | Solubility, Water medium pH = 4.5 [2] [mg/mL] | Solubility, Water medium pH = 6.8 [2] [mg/mL] | Solubility, Water medium [2] [µg/mL] | Hygroscopicity (Hygroscopicity test) | Weight gain due to hygroscopicity (Hygroscopicity test) [%] | TGA: starting to lose the acid (DSC and TGA tests) | TGA: starting to lose the water of crystallization (DSC and TGA tests) | efficacy on transplantation tumors [3] | solubility in water (in words) ([2]; water) | efficacy on transplantation tumors [4] | efficacy on transplantation tumors [5] | anti-lung cancer activity compared with Gefitinib (lung cancer) | efficacy on transplantation tumors [6] | anti-leukemia activity compared with Sunitinib (leukemia) | TGA: starting to decompose (DSC and TGA tests)
1 | CC(C)n1c(Nc2cccnc2)nc2cnc(Nc3ccc(N4CCN(C)CC4)cc3)nc21 [Example 10] | Yellow solid | Yellow solid | 66.52 | 13.98 | 6.36 | 2490 (≈ 5.61 mM) | Slightly hygroscopic (the weight gain due to hygroscopicity was less than 2% but not less than 0.2%.) | 0.54 | ~170 °C (see FIG. 30) | crystallization at about 40° C.; | – | – | – | – | – | – | – | –
2 | CC(C)n1c(Nc2cccnc2)nc2cnc(Nc3ccc(N4CCN(C)CC4)cc3)nc21 [Example 6] | Yellow solid | Yellow solid | 54.70 | 14.59 | 12.05 | 9680 (≈ 21.8 mM) | Slightly hygroscopic (the weight gain due to hygroscopicity was less than 2% but not less than 0.2%.) | 1.02 | ~170 °C (see FIG. 26) | crystallization at about 40° C.; | – | – | – | – | – | – | – | –
3 | CC(C)n1c(Nc2cccnc2)nc2cnc(Nc3ccc(N4CCN(C)CC4)cc3)nc21 [Example 11] | Yellow solid | Yellow solid | 87.38 | 16.13 | 8.61 | 27780 (≈ 62.6 mM) | Slightly hygroscopic (the weight gain due to hygroscopicity was less than 2% but not less than 0.2%.) | 0.68 | ~220 °C (see FIG. 31) | crystallization at about 40° C.; | – | – | – | – | – | – | – | –
4 | CC(C)n1c(Nc2cccnc2)nc2cnc(Nc3ccc(N4CCN(C)CC4)cc3)nc21 [The compound represented by Formula 1, 9-isopropyl-2-(4-(4-methylpiperazin-1-yl)anilino)-8-(pyridine-3-amino)-9H-purine] | – | – | 12.60 | 0.57 | 0.04 | 50 | Slightly hygroscopic (the weight gain due to hygroscopicity was less than 2% but not less than 0.2%.) | 0.45 | – | – | remarkable efficacy | insoluble in water | remarkable efficacy | remarkable efficacy | comparable to that of Gefitinib | remarkable efficacy | better than that of Sunitinib | ~155 °C (see FIG. 42)
